“And” between values parts separate entries of the source, which are not always exact repeats. Equal entries are not always repeated. “Also recorded” adds a separate entry of the source.
Legend:
5-HT1A receptor = molecular target: T1, 5-HT1A receptor (Homo sapiens, UniProt P08908); assay: cAMP-Glo assay of 5-HT1A receptor modulation in +5-HT1A and -5-HT1A CHO-K1 cells; assay type: cell-based; conditions: for cAMP levels / 5-HT1A receptor modulation: forskolin-stimulated +5-HT1A vs -5-HT1A cells
T1 construct: host or cells: CHO-K1 co-expressing Ga15
T1 sequence (P08908 1-422): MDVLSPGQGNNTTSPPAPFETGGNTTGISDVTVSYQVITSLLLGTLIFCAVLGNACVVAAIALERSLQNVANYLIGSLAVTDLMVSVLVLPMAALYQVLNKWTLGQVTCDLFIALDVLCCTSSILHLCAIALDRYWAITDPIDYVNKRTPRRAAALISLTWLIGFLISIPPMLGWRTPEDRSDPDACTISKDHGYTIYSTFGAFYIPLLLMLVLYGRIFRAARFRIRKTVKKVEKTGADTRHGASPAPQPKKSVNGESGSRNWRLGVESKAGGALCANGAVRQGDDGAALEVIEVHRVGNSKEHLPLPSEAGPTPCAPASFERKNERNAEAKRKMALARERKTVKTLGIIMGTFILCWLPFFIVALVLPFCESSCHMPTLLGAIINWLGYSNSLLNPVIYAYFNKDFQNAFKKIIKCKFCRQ

5-HT2A receptor [1] = molecular target: 5-HT2A receptor (Homo sapiens, UniProt P28223); assay: [3H]ketanserin competition binding assay (SPA); conditions: for 5-HT2A competition binding: control ligands, [3H]ketanserin competition
[2] = In vitro metabolic stability / psilocin release in AB serum; assay type: in vitro ADME, human
Text: A fundamental evaluation in drug development is the assessment of absorption, distribution, metabolism, excretion, and pharmacokinetics (ADME/PK) (Eddershaw et al., 2000, Drug Discovery Today 5(9): 409-414). […] Drug stability upon exposure to human liver microsomes and liver S9 cellular fractions is a common in vitro assay to approximate in vivo, liver-based drug metabolism (Richardson et al., 2016 Drug Metabolism Letters 10:83-90). First-pass metabolism is also often approximated in vitro using intestinal microsome and cellular S9 fractions (Hatley et al., 2017, Biopharmaceuticals & Drug Disposition, 38(2):155-160). Further, it is well known that human serum, and particularly circulating serum esterases can contribute to systemic drug metabolism (Williams, F M 1987, Pharmacology and Therapeutics, 34:99-109). Many pharmacological agents are classified as prodrugs, as they undergo metabolic transformation in vivo upon administration to release the active drug compound into the systemic compartment (Zawilska J B, et al. 2013, Pharmacological Reports, 65:1-14). Psilocybin, a serotonergic psychedelic agent, is well known prodrug that is metabolized into the psychoactive product, psilocin (Dinis-Oliveira, R J 2017, Drug Metabolism Reviews, 49(1):84-91). […] Supernatants were analyzed for the presence of candidate prodrugs (parent molecule) and psilocin (the predicted metabolite) using Orbitrap LC-MS (Thermo Scientific) using previously described methods (Menéndez-Perdomo et al., 2021, J. Mass Spectrom., 56: e4683). […] Assay concentrations (μM) of both parent ‘prodrug’ molecule and psilocin metabolite, as quantified through LC-MS using routine standard curve procedures, were plotted as functions of assay time (minutes). The metabolism rate (T1/2) was determined from the metabolism curve plot using the one phase decay feature of GraphPad PRISM software (Version 9.2.0). The quantity of parent prodrug at time zero was set as 100%. […]

[3] = Mouse pharmacokinetic (PK) evaluation of drug metabolism to psilocin; conditions: for administered compound in plasma after oral dosing: any dose
in vitro = in vitro ADME, human; conditions: for half-life: human
Text: A fundamental evaluation in drug development is the assessment of absorption, distribution, metabolism, excretion, and pharmacokinetics (ADME/PK) (Eddershaw et al., 2000, Drug Discovery Today 5(9): 409-414). […] Drug stability upon exposure to human liver microsomes and liver S9 cellular fractions is a common in vitro assay to approximate in vivo, liver-based drug metabolism (Richardson et al., 2016 Drug Metabolism Letters 10:83-90). First-pass metabolism is also often approximated in vitro using intestinal microsome and cellular S9 fractions (Hatley et al., 2017, Biopharmaceuticals & Drug Disposition, 38(2):155-160). Further, it is well known that human serum, and particularly circulating serum esterases can contribute to systemic drug metabolism (Williams, F M 1987, Pharmacology and Therapeutics, 34:99-109). Many pharmacological agents are classified as prodrugs, as they undergo metabolic transformation in vivo upon administration to release the active drug compound into the systemic compartment (Zawilska J B, et al. 2013, Pharmacological Reports, 65:1-14). Psilocybin, a serotonergic psychedelic agent, is well known prodrug that is metabolized into the psychoactive product, psilocin (Dinis-Oliveira, R J 2017, Drug Metabolism Reviews, 49(1):84-91). To evaluate the capacity of test molecules to similarly serve as prodrugs of psilocin, time-dependent, metabolic stability assays using human AB serum, human intestinal microsomes (HIM), human intestinal S9 fractions (HIS9), human liver microsomes (HLM), human liver S9 fractions (HLS9), human alkaline phosphatase, and porcine esterase were performed. […] Liquid chromatography coupled mass spectrometry (LC-MS) was employed to track the conversion of the test molecules into psilocin. All intestinal and liver fractions and NADPH RapidStart reagent was purchased from Sekisui/XenoTech. Human AB serum was purchased from Sigma. For intestine and liver metabolism assays, 2.5 μM candidate compounds were incubated in 400 μg/ml of each cellular fraction (HLM, HLS9, HIM, or HIS9) in 50 mM potassium phosphate buffer (pH 7.4) containing 3 mM MgCl2 and 1 mM EDTA supplemented with NADPH RapidStart at 37° C. Samples were taken at the start of the assay, and at every 20 minutes for 2 hours. Time-point samples were precipitated with 1:1 volume of acetonitrile to quench the reaction before centrifugation at 4000×g for 20 minutes. Supernatants were analyzed for the presence of candidate prodrugs (parent molecule) and psilocin (the predicted metabolite) using Orbitrap LC-MS (Thermo Scientific) using previously described methods (Menéndez-Perdomo et al., 2021, J. Mass Spectrom., 56: e4683). The serum assays were carried out in 10% human AB serum in 50 mM potassium phosphate buffer (pH 7.4) containing 3 mM MgCl2 and 1 mM EDTA. Bovine alkaline phosphatase assays were carried out using one unit of purified enzyme in 50 mM potassium phosphate buffer (pH 7.4) containing 3 mM MgCl2 and 1 mM EDTA. Porcine esterase assays were carried out using one unit of purified enzyme in 50 mM potassium phosphate buffer (pH 7.4) containing 3 mM MgCl2 and 1 mM EDTA. Assay concentrations (μM) of both parent ‘prodrug’ molecule and psilocin metabolite, as quantified through LC-MS using routine standard curve procedures, were plotted as functions of assay time (minutes). The metabolism rate (T1/2) was determined from the metabolism curve plot using the one phase decay feature of GraphPad PRISM software (Version 9.2.0). The quantity of parent prodrug at time zero was set as 100%.
Positive controls were first tested to ensure that assays were functioning properly.

HepG2 cells = assay: PrestoBlue cell viability assay; conditions: 48 hours
5-HT2A receptor [4] = molecular target: T2, 5-HT2A receptor (Mus musculus, UniProt P35363); assay: Drug-induced Head Twitch Response (HTR); assay type: in vivo, mice; conditions: 1 mg/kg i.p., 15-to-30-minute window after administration
T2 construct: tissue Charles River; host or cells: living C57BL/6-Elite mice (neuronal receptor)

GABAA = assay type: cell-based
[5] = Stability in enzyme-free control buffer; assay type: in vitro ADME; conditions: assay buffer without enzymes
Text: A fundamental evaluation in drug development is the assessment of absorption, distribution, metabolism, excretion, and pharmacokinetics (ADME/PK) (Eddershaw et al., 2000, Drug Discovery Today 5(9): 409-414). […] Drug stability upon exposure to human liver microsomes and liver S9 cellular fractions is a common in vitro assay to approximate in vivo, liver-based drug metabolism (Richardson et al., 2016 Drug Metabolism Letters 10:83-90). First-pass metabolism is also often approximated in vitro using intestinal microsome and cellular S9 fractions (Hatley et al., 2017, Biopharmaceuticals & Drug Disposition, 38(2):155-160). […] Supernatants were analyzed for the presence of candidate prodrugs (parent molecule) and psilocin (the predicted metabolite) using Orbitrap LC-MS (Thermo Scientific) using previously described methods (Menéndez-Perdomo et al., 2021, J. Mass Spectrom., 56: e4683). […] Assay concentrations (μM) of both parent ‘prodrug’ molecule and psilocin metabolite, as quantified through LC-MS using routine standard curve procedures, were plotted as functions of assay time (minutes). The metabolism rate (T1/2) was determined from the metabolism curve plot using the one phase decay feature of GraphPad PRISM software (Version 9.2.0). The quantity of parent prodrug at time zero was set as 100%.

[6] = 1 mg/kg i.v., 0.25 h, Mean ± SD
[7] = 1 mg/kg i.v., 1 h, individual mice
[8] = 1 mg/kg i.v., 2 h, individual mice
[9] = 1 mg/kg i.v., 4 h, individual mice
[10] = 1 mg/kg i.v., 6 h, individual mice
[11] = 1 mg/kg i.v., 8 h, individual mice
[12] = 3 mg/kg oral, 24 h, individual mice

5-HT2A receptor (Homo sapiens, UniProt P28223), sequence (P28223 whole entry): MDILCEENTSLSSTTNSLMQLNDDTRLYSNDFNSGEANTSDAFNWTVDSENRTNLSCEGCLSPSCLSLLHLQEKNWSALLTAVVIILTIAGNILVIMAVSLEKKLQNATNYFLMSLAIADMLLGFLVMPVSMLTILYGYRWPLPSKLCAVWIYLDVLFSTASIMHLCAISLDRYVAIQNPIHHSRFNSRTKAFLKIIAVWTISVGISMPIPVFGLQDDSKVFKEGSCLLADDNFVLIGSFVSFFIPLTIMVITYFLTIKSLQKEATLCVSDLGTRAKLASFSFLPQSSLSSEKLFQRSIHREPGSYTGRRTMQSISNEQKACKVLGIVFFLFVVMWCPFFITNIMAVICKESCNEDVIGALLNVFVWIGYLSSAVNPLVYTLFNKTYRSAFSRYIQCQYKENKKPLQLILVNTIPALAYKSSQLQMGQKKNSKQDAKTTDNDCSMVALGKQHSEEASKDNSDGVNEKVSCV
T2 sequence (P35363 whole entry): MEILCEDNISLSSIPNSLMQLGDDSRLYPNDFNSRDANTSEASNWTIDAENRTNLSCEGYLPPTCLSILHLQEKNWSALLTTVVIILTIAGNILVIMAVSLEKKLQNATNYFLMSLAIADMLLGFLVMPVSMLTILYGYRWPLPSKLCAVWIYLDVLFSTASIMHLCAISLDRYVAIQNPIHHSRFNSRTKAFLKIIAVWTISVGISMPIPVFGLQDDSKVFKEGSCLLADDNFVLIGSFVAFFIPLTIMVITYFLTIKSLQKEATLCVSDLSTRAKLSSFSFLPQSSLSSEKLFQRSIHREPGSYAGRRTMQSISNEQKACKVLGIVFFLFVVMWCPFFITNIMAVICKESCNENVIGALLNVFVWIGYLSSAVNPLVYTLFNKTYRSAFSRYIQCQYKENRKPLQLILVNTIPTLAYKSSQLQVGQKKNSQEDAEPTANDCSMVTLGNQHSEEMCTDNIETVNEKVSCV

Row | Compound | cAMP levels / 5-HT1A receptor modulation (5-HT1A receptor) | 5-HT2A competition binding (5-HT2A receptor [1]) | stability / conversion to psilocin [2] | Ki (5-HT2A receptor [1]) [nM] | stability / conversion to psilocin (in vitro; HLM) | stability / conversion to psilocin (in vitro; HLS9) | CD50 (cytotoxicity) (HepG2 cells) [µM] | Head Twitch Response (5-HT2A receptor [4]) | administered compound in plasma after i.v. dosing ([3]; 1 mg/kg i.v.) | Plasma concentration of the administered compound itself ([3]; 1 mg/kg i.v., 5 min, Mean ± SD) [ng/mL] | Plasma concentration of the administered compound itself [3, 6] [ng/mL] | Plasma concentration of the administered compound itself ([3]; 1 mg/kg i.v., 0.5 h, Mean ± SD) | Plasma concentration of the administered compound itself ([3]; 1 mg/kg i.v., 1 h, Mean ± SD) | Plasma concentration of the administered compound itself [3, 7] | Plasma concentration of the administered compound itself [3, 8] | Plasma concentration of the administered compound itself [3, 9] | Plasma concentration of the administered compound itself [3, 10] | Plasma concentration of the administered compound itself [3, 11] | Plasma concentration of psilocin [3, 12] | administered compound in plasma after oral dosing [3] | other results
1 | CN(C)CCc1c[nH]c2cccc(O)c12 [psilocin] | reduction in cAMP levels | binding |  |  |  |  |  |  |  |  |  |  |  |  |  |  |  |  |  |  | 
2 | NCCc1c[nH]c2ccc(O)cc12 [serotonin] | reduction in cAMP levels |  |  |  |  |  |  |  |  |  |  |  |  |  |  |  |  |  |  |  | 
3 | CN(C)CCc1c[nH]c2cccc(OC(=O)OCc3ccccc3)c12 [B(II)] |  |  | failed completely to dissociate | 277 | did not readily dissociate to psilocin | did not readily dissociate to psilocin | 65.9 | elicit head twitching |  |  |  |  |  |  |  |  |  |  |  |  | EC50 at 5-HT1A (5-HT1A receptor; forskolin-stimulated +5-HT1A cells): neither molecule engaged 5-HT1A with sufficient potency to calculate an EC50 value; time administered compound resides in plasma post-dosing ([3]; 10 mg/kg oral): up to 4 hours; half-life (in vitro; microsomes, pH 7.4): 3.63 h; half-life (in vitro; s9, pH 7.4): 8.95 h
4 | CN(C)CCc1c[nH]c2cccc(OC(=O)SCc3ccccc3)c12 [E(VI)] | mild receptor modulation at higher ligand concentrations |  | quickly converted to psilocin; also recorded: nearly completely disappears upon in vitro exposure to AB serum | 130 | quickly converted to psilocin | quickly converted to psilocin | 74.5 | Elevated incidences of HTR; also recorded: elevated response was observed in mice treated with E(VI) compared to B(II) | detectable levels of E(VI) | 24.4 ± 30.2 | 63.3 ± 51.7 | 7.81 ± 6.17 ng/mL | 4.49 (n = 2) ng/mL | 3.14 ng/mL and No Peak | 0.776 ng/mL and No Peak | BLQ (2×) and No Peak | No Peak (2×) and BLQ | No Peak | No Peak (2×) and BLQ | did not yield any detectable levels of E(VI); also recorded: never detected at any timepoint | IC50 (GABAA; blocker (BL)): 32200 nM; EC50 (GABAA; opener (OP)): > 100000 nM; Plasma concentration of the administered compound itself ([3]; 1 mg/kg i.v., 2 h, Mean ± SD): 0.685 (n = 2) ng/mL; AUC0-tlast of the administered compound ([3]; 1 mg/kg i.v., Mean ± SD): 19.7 ± 15.9 ng·h/mL; AUC0-tlast/Dose of the administered compound ([3]; 1 mg/kg i.v., Mean ± SD): 19.7 ± 15.9 kg·ng·h/mL/mg; AUC0-tlast/Dose of the administered compound ([3]; 1 mg/kg i.v., individual mice): 20.4 kg·ng·h/mL/mg and 35.2 kg·ng·h/mL/mg and 3.40 kg·ng·h/mL/mg; administered compound in plasma ([3]; 1 mg/kg oral): neither B(II) nor E(VI) were detected in plasma; Plasma concentration of psilocin ([3]; 1 mg/kg oral, 8 h, individual mice): BLQ; Plasma concentration of psilocin ([3]; 1 mg/kg oral, 24 h, individual mice): No Peak; Plasma concentration of psilocin ([3]; 10 mg/kg oral, 24 h, individual mice): BLQ
5 | N[C@@H](Cc1c[nH]c2ccccc12)C(=O)O [tryptophan] | no reduction in cellular cAMP levels | no binding |  |  |  |  |  |  |  |  |  |  |  |  |  |  |  |  |  |  | 
6 | CN(C)CCc1c[nH]c2cccc(OP(=O)(O)O)c12 [psilocybin] |  |  | stable in serum with no conversion to psilocin |  | stable in liver fractions with no conversion to psilocin | stable in liver fractions with no conversion to psilocin |  |  | only detectable in i.v. administered animals | 144 ± 167 | 13.2 ± 12.5 | 4.28 (n = 2) ng/mL | 1.21 (n = 1) ng/mL | No Peak (2×) and 1.21 ng/mL | No Peak | No Peak | No Peak | No Peak (2×) and 2.54 ng/mL | BLQ | not detectable in orally administered animals at any dose | Plasma concentration of the administered compound itself ([3]; 1 mg/kg i.v., 5 min, individual mice): 19.7 ng/mL and 76.8 ng/mL and 334 ng/mL; Plasma concentration of the administered compound itself ([3]; 1 mg/kg i.v., 0.25 h, individual mice): 3.32 ng/mL and 8.95 ng/mL and 27.2 ng/mL; Plasma concentration of the administered compound itself ([3]; 1 mg/kg i.v., 0.5 h, individual mice): No Peak and 2.35 ng/mL and 6.21 ng/mL; Plasma concentration of psilocin ([3]; 1.56 mg/kg oral, 24 h, individual mice): BLQ; stability [5]: stability of psilocybin was confirmed in assay buffer
